Results reported in US9353101B2 (Merck Sharp & Dohme Corp., priority 2012, dated 2016).

What follows are compounds tested against CETP (Homo sapiens (Human), UniProt P11597) (assay: In vitro radioactive assay of CETP-catalyzed CE and TG transfer (RTA assay), 95% human serum). Conditions: RTA assay in 95% human serum; read-out: RTA IC50 (CETP Inhibition).
Chain of CETP (P11597 18-493 limits assumed): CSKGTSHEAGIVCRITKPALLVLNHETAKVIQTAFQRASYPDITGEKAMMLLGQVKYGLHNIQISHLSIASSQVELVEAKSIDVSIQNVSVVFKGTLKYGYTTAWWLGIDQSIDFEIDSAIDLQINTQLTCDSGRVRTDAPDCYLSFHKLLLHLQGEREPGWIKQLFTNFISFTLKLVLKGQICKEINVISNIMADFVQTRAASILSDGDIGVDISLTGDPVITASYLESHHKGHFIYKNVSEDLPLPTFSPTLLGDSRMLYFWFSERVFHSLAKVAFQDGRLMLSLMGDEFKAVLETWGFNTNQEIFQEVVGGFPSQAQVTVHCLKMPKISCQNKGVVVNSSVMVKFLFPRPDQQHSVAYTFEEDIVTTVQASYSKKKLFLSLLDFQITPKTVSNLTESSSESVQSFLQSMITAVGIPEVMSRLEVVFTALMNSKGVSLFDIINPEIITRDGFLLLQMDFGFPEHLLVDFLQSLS
Assay type: biochemical
Experimental: In Vitro Radioactive Assays of CETP-Catalyzed CE and TG Transfer (RTA Assay)
Reagents and sources are: [3H] cholesteryl oleate (GE #TRK.886), [3H] Triolein (Perkin-Elmer NET-431), Butylated hydroxyl toluene (Aldrich, #D4740-4), DOPC (Sigma, # P6354), Sodium Bromide (Fisher scientific #S255-500), PEG 8000 (Fisher, #BP233-1), and human HDL (Intracel Corp #RP-036).
An in vitro assay for determining IC50's to identify compounds that inhibit CETP transfer activity is performed based on a modification of a published method (Morton and Zilversmit, (1981) A plasma inhibitor of triglyceride and cholesteryl ester transfer activities, J. Biol. Chem. 256(23), 11992-11995). The ability of inhibitors to alter CETP activity is performed using two different assays: one using recombinant CETP and one using an endogenous plasma source of CETP. Both assays measure the transfer of [3H] cholesteryl oleate or [3H] triolein from exogenous LDL to HDL.
Radiolabeled donor particles are generated by first combining 100 μl of 200 μM butylated hydroxyl toluene in CHCl3, 216 μL of 21.57 mM DOPC in EtOH, and either 500 μCi [3H]-triolein (Perkin Elmer #NET-431) or 500 μCi [3H]-cholesteryl oleate (GE #TRK886) in a glass tube. Reagents are mixed, dried under nitrogen, and then resuspended in 2 mL of 50 mM Tris, 27 μM EDTA at pH 7.4. After a brief vortex, the solution is sonicated until clear and mixed with 20 mL of fresh human serum. The mixture is incubated overnight at 37° C. The [3H] labeled LDL substrate is separated at 1.063 g/ml density by sequential ultracentrifugal flotation in NaBr according to the method by (Havel, Eder et al. 1955; Chapman, Goldstein et al. 1981). Once isolated the particles are dialyzed 3× in CETP buffer (50 mM Tris, pH 7.4, 100 mM NaCl, 1 mM EDTA). Human HDL is purchased from Intracel and used as the acceptor particles.
Transfer assays are performed in a 96 or 384-well v-bottom polypropylene plate. For the RTA using recombinant CETP (2% RTA), an assay cocktail is prepared with the final concentrations 128 μg/mL HDL, 20 nM rCETP, 2% human serum, and 1×CETP buffer. 1 μL of each test compound diluted in DMSO is added to 47 μL of assay cocktail per well and incubated at 37° C. for 1 hour. To initiate the transfer reaction, 2 μL radiolabeled LDL is added. After an additional 60 min of incubation at 37° C., the transfer action is terminated by precipitation of LDL with an equal volume of 20% W/V PEG 8000. The plates are centrifuged at 2000 rpm for 30 minutes at 4° C. A 40 μL aliquot of the HDL-containing supernatant is transferred to a Packard Optiplate™ with 200 μL of MicroScint™ 20. After mixing, plates are counted by liquid scintillation. Counts present in the supernatant for blanks (wells containing only HDL acceptor, CETP buffer and DMSO) are subtracted from those containing test compounds and used to correct for non-specific transfer.
For the transfer assay using endogenous CETP from serum (95% RTA), the same procedure is used except that human serum is added such that a final concentration of serum of 95% of the total assay volume is achieved, yielding a concentration of approximately 15 nM endogenous CETP in the assay. This is then combined with HDL and CETP buffer and the reaction proceeds as above and is terminated as described.
Comparison of the counts of samples with inhibitors to an uninhibited (DMSO only) positive control yield a percent inhibition. A plot of percent inhibition vs. log of inhibitor concentration, fit to a Sigmoidal 4 parameter equation is used to calculate IC50.
Starting materials are commercially available or are made using known procedures or as shown below. The examples may be synthesized using the general schemes provided below. The data reported for the examples below were obtained using the RTA assay in 95% human serum.
For `COc1ncc(-c2ccc(C(=O)O)cc2C)cc1-c1cnc(N2CC(F)(F)C2)nc1CN1C(=O)O[C@H](c2cc(C(F)(F)F)cc(C(F)(F)F)c2)[C@@H]1C` [Example 42, 4-{5-[4-({(4S,5R)-5-[3,5-Bis(trifluoromethyl)phenyl]-4-methyl-2-oxo-1,3-oxazolidin-3-yl}methyl)-2-(3,3-difluoroazetidin-1-yl)pyrimidin-5-yl]-6-methoxypyridin-3-yl}-3-methylbenzoic acid], the IC50 was 9 nM. In the case of `COc1ncc(-c2ccc(C(=O)O)cc2C)cc1-c1cnc(-n2ccnc2)nc1CN1C(=O)O[C@H](c2cc(C(F)(F)F)cc(C(F)(F)F)c2)[C@@H]1C` [Example 43, 4-{5-[4-({(4S,5R)-5-[3,5-Bis(trifluoromethyl)phenyl]-4-methyl-2-oxo-1,3-oxazolidin-3-yl}methyl)-2-(1H-imidazol-1-yl)pyrimidin-5-yl]-6-methoxypyridin-3-yl}-3-methylbenzoic acid], the IC50 is reported as 109 nM. `COc1ncc(-c2ccc(C(=O)O)cc2C)cc1-c1cnc(N2CC(F)C2)nc1CN1C(=O)O[C@H](c2cc(F)cc(F)c2)[C@@H]1C` [Example 44, 4-{5-[4-{[(4S,5R)-5-(3,5-Difluorophenyl)-4-methyl-2-oxo-1,3-oxazolidin-3-yl]methyl}-2-(3-fluoroazetidin-1-yl)pyrimidin-5-yl]-6-methoxypyridin-3-yl}-3-methylbenzoic acid] showed an IC50 of 35 nM. In the case of `COc1ncc(-c2ccc(C(=O)O)cc2C)cc1-c1cnc(N2CC(F)C2)nc1CN1C(=O)O[C@H](c2cccc(OC(F)(F)F)c2)[C@@H]1C` [Example 45, 4-{5-[2-(3-Fluoroazetidin-1-yl)-4-({(4S,5R)-4-methyl-2-oxo-5-[3-(trifluoromethoxy)phenyl]-1,3-oxazolidin-3-yl}methyl)pyrimidin-5-yl]-6-methoxypyridin-3-yl}-3-methylbenzoic acid], the IC50 is reported as 50 nM. `COc1ncc(-c2ccc(C(=O)O)cc2C)cc1-c1cnc(N2CC(F)C2)nc1CN1C(=O)O[C@H](c2cc(F)cc(C(F)(F)F)c2)[C@@H]1C` [Example 46, 4-{5-[2-(3-Fluoroazetidin-1-yl)-4-({(4S,5R)-5-[3-fluoro-5-(trifluoromethyl)phenyl]-4-methyl-2-oxo-1,3-oxazolidin-3-yl}methyl)pyrimidin-5-yl]-6-methoxypyridin-3-yl}-3-methylbenzoic acid] gave an IC50 of 12 nM. With `COc1ncc(-c2ccc(C(=O)O)cc2C)cc1-c1cnc(N2CC(F)(F)C2)nc1CN1C(=O)O[C@H](c2cc(F)cc(C(F)(F)F)c2)[C@@H]1C` [Example 47, 4-{5-[2-(3,3-Difluoroazetidin-1-yl)-4-({(4S,5R)-5-[3-fluoro-5-(trifluoromethyl)phenyl]-4-methyl-2-oxo-1,3-oxazolidin-3-yl}methyl)pyrimidin-5-yl]-6-methoxypyridin-3-yl}-3-methylbenzoic acid] the IC50 was 9 nM. Work on `COc1ncc(-c2c(C)cc(C(=O)O)cc2C)cc1-c1cnc(N2CC(F)C2)nc1CN1C(=O)O[C@H](c2cc(F)cc(C(F)(F)F)c2)[C@@H]1C` [Example 48, 4-{5-[2-(3-Fluoroazetidin-1-yl)-4-({(4S,5R)-5-[3-fluoro-5-(trifluoromethyl)phenyl]-4-methyl-2-oxo-1,3-oxazolidin-3-yl}methyl)pyrimidin-5-yl]-6-methoxypyridin-3-yl}-3,5-dimethylbenzoic acid] yielded an IC50 of 15 nM. `Cc1cc(C(=O)O)ccc1-c1nc(C(C)(C)C)c(-c2cnc(N3CC(F)(F)C3)nc2CN2C(=O)O[C@H](c3cc(C(F)(F)F)cc(C(F)(F)F)c3)[C@@H]2C)s1` [Example 49, 4-{5-[4-({(4S,5R)-5-[3,5-Bis(trifluoromethyl)phenyl]-4-methyl-2-oxo-1,3-oxazolidin-3-yl}methyl)-2-(3,3-difluoroazetidin-1-yl)pyrimidin-5-yl]-4-tert-butyl-1,3-thiazol-2-yl}-3-methylbenzoic acid] showed an IC50 of 800 nM. With `Cc1cc(C(=O)O)ccc1-c1nc(C(C)(C)C)c(-c2cnc(N3CC(F)C3)nc2CN2C(=O)O[C@H](c3cc(C(F)(F)F)cc(C(F)(F)F)c3)[C@@H]2C)s1` [Example 50, 4-{5-[4-({(4S,5R)-5-[3,5-Bis(trifluoromethyl)phenyl]-4-methyl-2-oxo-1,3-oxazolidin-3-yl}methyl)-2-(3-fluoroazetidin-1-yl)pyrimidin-5-yl]-4-tert-butyl-1,3-thiazol-2-yl}-3-methylbenzoic acid] the IC50 was 197 nM. Compound `Cc1cc(C(=O)O)ccc1-c1nc(C)c(-c2cnc(N3CC(F)C3)nc2CN2C(=O)O[C@H](c3cc(C(F)(F)F)cc(C(F)(F)F)c3)[C@@H]2C)s1` [Example 51, 4-{5-[4-({(4S,5R)-5-[3,5-Bis(trifluoromethyl)phenyl]-4-methyl-2-oxo-1,3-oxazolidin-3-yl}methyl)-2-(3-fluoroazetidin-1-yl)pyrimidin-5-yl]-4-methyl-1,3-thiazol-2-yl}-3-methylbenzoic acid] has an IC50 of 33 nM. With `Cc1cc(C(=O)O)ccc1-c1nc(C)c(-c2cnc(N3CC(F)(F)C3)nc2CN2C(=O)O[C@H](c3cc(C(F)(F)F)cc(C(F)(F)F)c3)[C@@H]2C)s1` [Example 52, 4-{5-[4-({(4S,5R)-5-[3,5-Bis(trifluoromethyl)phenyl]-4-methyl-2-oxo-1,3-oxazolidin-3-yl}methyl)-2-(3,3-difluoroazetidin-1-yl)pyrimidin-5-yl]-4-methyl-1,3-thiazol-2-yl}-3-methylbenzoic acid] the IC50 was 61 nM. `Cc1cc(C(=O)O)ccc1-c1cnc(C)c(-c2cnc(N3CC(F)C3)nc2CN2C(=O)O[C@H](c3cc(C(F)(F)F)cc(C(F)(F)F)c3)[C@@H]2C)c1` [Example 54, 4-{5-[4-({(4S,5R)-5-[3,5-Bis(trifluoromethyl)phenyl]-4-methyl-2-oxo-1,3-oxazolidin-3-yl}methyl)-2-(3-fluoroazetidin-1-yl)pyrimidin-5-yl]-6-methylpyridin-3-yl}-3-methylbenzoic acid] showed an IC50 of 26 nM. Compound `COc1ncc(-c2ccc(C(=O)OC(C)(C)C)cc2C)cc1-c1ccc(N2CCOCC2)nc1CN1C(=O)O[C@H](c2cc(C(F)(F)F)cc(C(F)(F)F)c2)[C@@H]1C` [Example 55] has an IC50 of 22 nM. `COc1ncc(-c2ccc(C(=O)O)cc2C)cc1-c1ccc(N2CCOCC2)nc1CN1C(=O)O[C@H](c2cc(C(F)(F)F)cc(C(F)(F)F)c2)[C@@H]1C` [Example 56] was tested, and the IC50 was 9 nM. `COc1ncc(-c2c(C)cc(C(=O)OC(C)(C)C)cc2C)cc1-c1ccc(N2CC(F)(F)C2)nc1CN1C(=O)O[C@H](c2cc(C(F)(F)F)cc(C(F)(F)F)c2)[C@@H]1C` [Example 57] was tested, and the IC50 was 5 nM. Work on `COc1ncc(-c2c(C)cc(C(=O)O)cc2C)cc1-c1ccc(N2CC(F)(F)C2)nc1CN1C(=O)O[C@H](c2cc(C(F)(F)F)cc(C(F)(F)F)c2)[C@@H]1C` [Example 58] yielded an IC50 of 7 nM. `COc1ncc(-c2ccc(C(=O)OC(C)(C)C)cc2C)cc1-c1ccc(N2CC(F)(F)C2)nc1CN1C(=O)O[C@H](c2cc(C(F)(F)F)cc(C(F)(F)F)c2)[C@@H]1C` [Example 59] gave an IC50 of 15 nM. Work on `COc1ncc(-c2ccc(C(=O)O)cc2C)cc1-c1ccc(N2CC(F)(F)C2)nc1CN1C(=O)O[C@H](c2cc(C(F)(F)F)cc(C(F)(F)F)c2)[C@@H]1C` [Example 60] yielded an IC50 of 5 nM. Work on `COc1ncc(-c2ccc(C(=O)OC(C)(C)C)cc2C)cc1-c1ccc(N2CC(F)C2)nc1CN1C(=O)O[C@H](c2cc(C(F)(F)F)cc(C(F)(F)F)c2)[C@@H]1C` [Example 61] yielded an IC50 of 15 nM. `COc1ncc(-c2ccc(C(=O)O)cc2C)cc1-c1ccc(N2CC(F)C2)nc1CN1C(=O)O[C@H](c2cc(C(F)(F)F)cc(C(F)(F)F)c2)[C@@H]1C` [Example 62] showed an IC50 of 6 nM. With `COc1ncc(-c2c(C)cc(C(=O)O)cc2C)cc1-c1cnc(N2CC(F)(F)C2)cc1CN1C(=O)O[C@H](c2cc(C(F)(F)F)cc(C(F)(F)F)c2)[C@@H]1C` [Example 63] the IC50 was 52 nM.
